{"source": "patent US20240368221A1", "about": "“IMPATIENS BALSAMINA-DERIVED ANTI-BACTERIAL PEPTIDE AND ANTI-BACTERIAL COMPOSITION CONTAINING SAME” (V&CO CO., LTD., priority 2021, published 2024)", "key": {"[1]": {"test_system": "sheep red blood cells (sRBCs)", "test": "Hemolytic activity", "type": "cell-based", "details": "for Hemolytic Activity (%): red cells of sheep", "method": "Specifically, hemolytic activity was analyzed using sheep red blood cells (sRBCs). In addition, as comparative groups, Ib-AMP4 and melittin were used. Defibrinated sheep blood (MB cells) was centrifuged (4,000×g, 10 min, 4° C.), washed with PBS three times, and suspended in PBS, thereby preparing an sRBC solution (10% sRBC). 5% sRBC and each peptide were mixed to have a final concentration of 1.25 to 160 μg/mL, allowed to react at room temperature for 30 minutes, and centrifuged to collect a supernatant. The absorbance (A414) of hemoglobin eluted from the red blood cells in the collected supernatant was measured at 414 nm. 0.1% Triton X−100 was used as a positive control, PBS was used as a negative control, and hemolytic activity (% Hemolysis) was calculated based on the following equation: % Hemolysis=[(A414 in peptide solution−A414 in PBS)/(A414 in 0.1% Triton X−100−A414 in PBS)]×100."}, "[2]": {"test": "Cytotoxicity, WST-1 cell viability", "type": "cell-based, murine", "details": "mouse, L929 cells (murine fibroblast cell line)", "method": "(§1) Specifically, cytotoxicity was evaluated using a skin cell line, L929 cells (murine fibroblast cell line). In addition, as comparative groups, Ib-AMP4 and the bee venom-derived AMP, melittin, known to be highly cytotoxic, were used. The L929 cells were cultured in RPMI 1640 medium (Gibco), which was supplemented with 10% FBS (Sigma), antibiotic-antimycotic cocktail, penicillin G (100 IU/mL), streptomycin (100 μg/mL), and amphotericin B (250 ng/ml; Gibco), at 37° C. in 5% CO2. The cells were seeded in a 96-well plate at 1×10^4 cell/well, incubated for 18 hours, treated with each peptide at 1.25 to 160 µg/mL, and then incubated for 24 hours. 10 μL of WST-1 reagent was added to 100 μL of the medium and allowed to react at 37° C. for 30 minutes, and then absorbance (A450) was measured at 450 nm using a microplate reader. Instead of the peptides, 0.1% Triton X-100 and PBS were used as positive and negative controls, respectively, and cell viability was calculated based on the following equation: % Cell viability=[(A450 in peptide solution−A450 in PBS)/(A450 in 0.1% Triton X−100-A450 in PBS)]×100. The analysis results were expressed as mean±S.D of three repeated experiments."}, "[3]": {"test_system": "L929 cells (murine fibroblast cell line)", "test": "Cytotoxicity, WST-1 cell viability", "type": "cell-based", "method": "as §1"}, "[4]": {"test_system": "Cutibacterium acnes KCTC 3314", "type": "cell-based", "details": "KCTC 3314", "method": "(§2) To examine the antimicrobial and antifungal activity of the six types of peptide derivatives prepared in Example 1, antimicrobial and antifungal activity was analyzed using three types of bacterial strains and two types of fungal strains.\n(§3) Specifically, to analyze antimicrobial and antifungal activity, a minimal inhibitory concentration (MIC) was measured. The three types of bacterial strains included Escherichia coli KCCM 41290, Staphylococcus aureus KCTC 1621, and Cutibacterium acnes KCTC 3314, and the two types of fungal strains included Candida albicans KCTC 17712, and Aspergillus niger KCTC 6317. The culture of Escherichia coli and Staphylococcus aureus was performed in Luria-Bertani (LB) medium (BD Difco), and the culture of Cutibacterium acnes was performed in reinforced clostridial medium (RCM, BD Difco). The culture of Candida albicans and Aspergillus niger was performed in potato dextrose (PD) medium (BD Difco). The pre-cultured microorganisms or spores were diluted in a medium to 5×10^3 CFU/mL, and each of the six types of peptide derivatives prepared in Example 1 was added at a predetermined concentration. Afterward, a bacterial strain was cultured at 37° C., a fungal strain was cultured at 25° C. for 18 to 24 hours, and optical densities (OD600) were measured using a microplate reader. Fluorescence values (Ex560 and Em600), instead of optical densities, were measured after adding a resazurin reagent to the Aspergillus niger medium to have a concentration of 100 μM. As a control, Ib-AMP4 was used, and the analysis results were expressed as the average of three repeated experiments."}, "[5]": {"test_system": "Escherichia coli KCCM 41290", "type": "cell-based", "method": "as §2, §3"}, "[6]": {"test_system": "Staphylococcus aureus KCTC 1621", "type": "cell-based", "method": "as §2, §3"}, "[7]": {"test_system": "Aspergillus niger KCTC 6317", "type": "cell-based", "method": "as §2, §3"}, "[8]": {"test_system": "Candida albicans KCTC 17712", "type": "cell-based", "method": "as §2, §3"}}, "note": "Read-outs that look alike come from different tables or passages of the source. Where a SMILES comes first, the peptide text is derived from it."}
{"smiles": "N=C(N)NCCC[C@H](NC(=O)CNC(=O)[C@H](Cc1c[nH]c2ccccc12)NC(=O)[C@@H](N)CCC(=O)O)C(=O)N[C@@H](CCCNC(=N)N)C(=O)N[C@@H](CS)C(=O)N[C@@H](CS)C(=O)NCC(=O)N[C@@H](Cc1c[nH]c2ccccc12)C(=O)NCC(=O)N1CCC[C@H]1C(=O)NCC(=O)N[C@@H](CCCNC(=N)N)C(=O)N[C@@H](CCCNC(=N)N)C(=O)N[C@@H](Cc1ccc(O)cc1)C(=O)N[C@@H](CS)C(=O)N[C@@H](CCCNC(=N)N)C(=O)N[C@@H](CCCNC(=N)N)C(=O)N[C@@H](Cc1c[nH]c2ccccc12)C(=O)N[C@@H](CS)C(N)=O", "note": "[Ib-AMP4] (H-EWGRRCCGWGPGRRYCRRWC-NH2; N-terminus assumed)", "values": [{"measurement": "Hemolytic Activity (%)", "setting": "[1]; 1.25 μg/mL", "result": 4.09, "unit": "%"}, {"measurement": "Hemolytic Activity (%)", "setting": "[1]; 2.5 μg/mL", "result": 4.47, "unit": "%"}, {"measurement": "Hemolytic Activity (%)", "setting": "[1]; 5 μg/mL", "result": 7.42, "unit": "%"}, {"measurement": "Hemolytic Activity (%)", "setting": "[1]; 10 μg/mL", "result": 8.42, "unit": "%"}, {"measurement": "Hemolytic Activity (%)", "setting": "[1]; 20 μg/mL", "result": 10.15, "unit": "%"}, {"measurement": "Hemolytic Activity (%)", "setting": "[1]; 40 μg/mL", "result": 15.79, "unit": "%"}, {"measurement": "Hemolytic Activity (%)", "setting": "[1]; 80 μg/mL", "result": 16.61, "unit": "%"}, {"measurement": "hemolytic activity (in words)", "setting": "[1]; sheep red blood cells", "result": "insignificant cytotoxic and hemolytic activity"}, {"measurement": "viability at 24 h, 1.25 µg/mL", "setting": "[2]; L929 cells, peptide 1.25 μg/mL, 24 hours, read-out: Relative cell viability (%)", "result": 95, "unit": "%"}, {"measurement": "viability at 24 h, 2.5 µg/mL", "setting": "[2]; L929 cells, peptide 2.5 μg/mL, 24 hours, read-out: Relative cell viability (%)", "result": 94.4, "unit": "%"}, {"measurement": "viability at 24 h, 5 µg/mL", "setting": "[2]; L929 cells, peptide 5.0 μg/mL, 24 hours, read-out: Relative cell viability (%)", "result": 95.1, "unit": "%"}, {"measurement": "viability at 24 h, 10 µg/mL", "setting": "[2]; L929 cells, peptide 10 μg/mL, 24 hours, read-out: Relative cell viability (%)", "result": 95.7, "unit": "%"}, {"measurement": "viability at 24 h, 20 µg/mL", "setting": "[2]; L929 cells, peptide 20 μg/mL, 24 hours, read-out: Relative cell viability (%)", "result": 97.3, "unit": "%"}, {"measurement": "viability at 24 h, 40 µg/mL", "setting": "[2]; L929 cells, peptide 40 μg/mL, 24 hours, read-out: Relative cell viability (%)", "result": 90.4, "unit": "%"}, {"measurement": "viability at 24 h, 80 µg/mL", "setting": "[2]; L929 cells, peptide 80 μg/mL, 24 hours, read-out: Relative cell viability (%)", "result": 92.2, "unit": "%"}, {"measurement": "viability at 24 h, 160 µg/mL", "setting": "[2]; L929 cells, peptide 160 μg/mL, 24 hours, read-out: Relative cell viability (%)", "result": 89.2, "unit": "%"}, {"measurement": "viability at 24 h, 160 g/mL", "setting": "[2]; L929 cells, peptide 160 g/mL as printed, read-out: cell viability", "result": "≥ 90", "unit": "%"}, {"measurement": "cytotoxic activity (in words)", "setting": "[3]; L929 cells", "result": "insignificant cytotoxic and hemolytic activity"}, {"measurement": "MIC", "setting": "[4]", "result": ">100", "unit": "µg/mL"}, {"measurement": "antimicrobial activity (in words)", "setting": "[5]; Escherichia coli", "result": "insignificant antimicrobial activity"}, {"measurement": "MIC", "setting": "[5]; Escherichia coli, LB medium, 37° C., 18 to 24 hours, OD600", "result": "> 100", "unit": "µg/mL"}, {"measurement": "antimicrobial activity (in words)", "setting": "[6]; Staphylococcus aureus", "result": "insignificant antimicrobial activity"}, {"measurement": "MIC", "setting": "[6]; Staphylococcus aureus, LB medium, 37° C., 18 to 24 hours, OD600", "result": "> 100", "unit": "µg/mL"}, {"measurement": "MIC", "setting": "[7]; Aspergillus niger, PD medium, 25° C., 18 to 24 hours, resazurin fluorescence", "result": 80, "unit": "µg/mL"}, {"measurement": "MIC", "setting": "[8]; Candida albicans, PD medium, 25° C., 18 to 24 hours, OD600", "result": 60, "unit": "µg/mL"}]}
{"smiles": "N=C(N)NCCC[C@H](NC(=O)[C@H](CCCNC(=N)N)NC(=O)[C@H](Cc1c[nH]c2ccccc12)NC(=O)[C@H](Cc1ccc(O)cc1)NC(=O)[C@H](CCCNC(=N)N)NC(=O)[C@H](CCCNC(=N)N)NC(=O)[C@H](Cc1c[nH]c2ccccc12)NC(=O)[C@@H]1CCCN1C(=O)CN)C(N)=O", "note": "[VESCA3] (H-GPWRRYWRR-NH2)", "values": [{"measurement": "hemolytic activity (in words)", "setting": "[1]", "result": "insignificant cytotoxic and hemolytic activity"}, {"measurement": "viability at 24 h, 1.25 µg/mL", "setting": "[2]", "result": 96.7, "unit": "%"}, {"measurement": "viability at 24 h, 2.5 µg/mL", "setting": "[2]", "result": 104, "unit": "%"}, {"measurement": "viability at 24 h, 5 µg/mL", "setting": "[2]", "result": 104, "unit": "%"}, {"measurement": "viability at 24 h, 10 µg/mL", "setting": "[2]", "result": 97.1, "unit": "%"}, {"measurement": "viability at 24 h, 20 µg/mL", "setting": "[2]", "result": 99.7, "unit": "%"}, {"measurement": "viability at 24 h, 40 µg/mL", "setting": "[2]", "result": 91.9, "unit": "%"}, {"measurement": "viability at 24 h, 80 µg/mL", "setting": "[2]", "result": 91.6, "unit": "%"}, {"measurement": "viability at 24 h, 160 µg/mL", "setting": "[2]", "result": 94.9, "unit": "%"}, {"measurement": "viability at 24 h, 160 g/mL", "setting": "[2]", "result": "≥ 90", "unit": "%"}, {"measurement": "cytotoxic activity (in words)", "setting": "[3]", "result": "insignificant cytotoxic and hemolytic activity"}, {"measurement": "MIC", "setting": "[4]", "result": ">100", "unit": "µg/mL"}, {"measurement": "MIC", "setting": "[5]; KCCM 41290", "result": 60, "unit": "µg/mL"}, {"measurement": "MIC", "setting": "[6]; KCTC 1621", "result": 5, "unit": "µg/mL"}, {"measurement": "MIC", "setting": "[7]; KCTC 6317", "result": 40, "unit": "µg/mL"}, {"measurement": "MIC", "setting": "[8]; KCTC 17712", "result": 20, "unit": "µg/mL"}]}
